Assay results reported in the supplement of paper PMC6580486.

Assays:
PCB490-3 = system: PCB490-3 (human epithelioid sarcoma primary culture)
Procedure: (§1)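 Roche open-access kinase inhibitor screen (223 compounds) on human epithelioid sarcoma primary cultures from three spatially distinct regions of tumor PCB490. 384-well plates, 72 h, CellTiter-Glo viability; IC50 by Hill curve fit. 100000 nM = no IC50 reached. Compound ids carry a plate-well prefix, which is stripped.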

PCB490-4 = system: PCB490-4 (human epithelioid sarcoma primary culture)
Procedure: as §1

PCB490-5 = system: PCB490-5 (human epithelioid sarcoma primary culture)
Procedure: as §1

Measured: IC50 cell viability

Cn1c(=O)c(Oc2ccccc2)cc2cnc(NC3CCOCC3)nc21
> 100 µM: all assays above

Cn1cc(C2=C(c3cn(C)c4ccc(Cl)cc34)C(=O)NC2=O)c2ccccc21
> 100 µM: all assays above

Cn1cc(C2=C(c3cccc(OC[C@H](O)CO)c3)C(=O)NC2=O)c2ccccc21
> 100 µM: all assays above

Cn1c(=O)c(Oc2ccc(F)cc2F)cc2cnc(NCC(C)(C)O)nc21
> 100 µM: all assays above

CC(=O)N[C@@H](Cc1ccc(OP(=O)(O)O)cc1)C(=O)N[C@H]1CCC(=O)N2CCC[C@@H](C(=O)NC3CCc4ccccc43)N2C1=O (stereo not given in full)
> 100 µM: all assays above

Nc1c(C(=O)c2cccc(C(O)(CO)CO)c2)cnn1-c1ccc(F)cc1
> 100 µM: all assays above

O=C1NC(=NCc2ccccn2)S/C1=C\c1ccc2ncccc2c1
> 100 µM: all assays above

O=C1NC(=NCc2ccccc2Br)S/C1=C\c1ccc2ncccc2c1
> 100 µM: all assays above

Nc1c(C(=O)c2cccc(-c3cccnc3)c2)cnn1-c1ccc(F)cc1F
> 100 µM: all assays above

Cn1cc(C2=C(c3cn(CCN)c4ccccc34)C(=O)NC2=O)c2ccccc21
> 100 µM: all assays above

Cn1cc(C2=C(Nc3ccccc3)C(=O)NC2=O)c2ccccc21
> 100 µM: all assays above

Cn1cc(C2=C(c3cccc4ccccc34)C(=O)NC2=O)c2ccccc21
> 100 µM: all assays above

Nc1c(C(=O)c2ccc(-c3cccnc3)cc2)cnn1-c1ccc(F)cc1
> 100 µM: all assays above

Nc1c(C(=O)c2cccc(-c3ccncc3)c2)cnn1-c1ccc(F)cc1F
> 100 µM: all assays above

COc1cccc(C2=C(c3cn(C)c4ccccc34)C(=O)NC2=O)c1
> 100 µM: all assays above

CCn1c(=O)c(Oc2ccc(F)cc2F)cc2cnc(NC3CCOCC3)nc21
> 100 µM: all assays above

Cn1cc(C2=C(N3CCOCC3)C(=O)NC2=O)c2ccccc21
> 100 µM: all assays above

Cn1cc(C2=C(c3ccc4ccccc4c3)C(=O)NC2=O)c2ccccc21
> 100 µM: all assays above

CS(=O)(=O)CCn1c(=O)c(Oc2ccc(F)cc2F)cc2cnc(NC3CCOCC3)nc21
> 100 µM: all assays above

Fc1ccc(-c2c(-c3ccncc3)[nH]c3nccnc23)cc1
> 100 µM: all assays above

Cn1cc(C2=C(Oc3ccccc3)C(=O)NC2=O)c2ccccc21
> 100 µM: all assays above

CCNC(=O)[C@@H]1CCCN2C(=O)CC[C@H](NC(=O)[C@H](Cc3ccc(OP(=O)(O)O)cc3)NC(C)=O)C(=O)N12
> 100 µM: all assays above

O=C1NC(=O)C(c2c[nH]c3ccccc23)=C1c1ccccc1
> 100 µM: all assays above

Cc1nc2sc3c(N)ncnc3c2c(C)c1C
> 100 µM: all assays above

O=C1NC(=NCCCc2ccccc2)S/C1=C\c1ccc2ncccc2c1
> 100 µM: all assays above

Cn1c(=O)c(Oc2ccc(F)cc2F)cc2cnc(NC3CCS(=O)(=O)CC3)nc21
> 100 µM: all assays above

Nc1c(C(=O)c2cccc(-c3ccc[n+]([O-])c3)c2)cnn1-c1ccc(F)cc1F
> 100 µM: all assays above

COc1cc[nH]c1/C=C1\C(=O)Nc2ccccc21
> 100 µM: all assays above

COc1ccccc1CN=C1NC(=O)/C(=C/c2ccc3ncccc3c2)S1
> 100 µM: all assays above

O=C1NC(=NCCc2ccccn2)S/C1=C\c1ccc2ncccc2c1
> 100 µM: all assays above
